Measured values as given in patent publication US8415376B2, “Inhibitors of PI3 kinase” (Amgen Inc., priority 2008, dated 2013).

Experiments:
PI3Kα = target: T1, PI3Kα (Homo sapiens, UniProt P42336); test: In vitro PI3K AlphaScreen assay; assay type: biochemical; details: average if run more than once
T1 construct: Full length p110 subunits of PI3K α, β and δ, N-terminally labeled with polyHis tag; polyHis (N); made in house; host or cells: Sf9 insect cells (baculovirus)
Method: In Vitro PI3K Alphascreen® Assay
The PI3K AlphaScreen® assay (PerkinElmer, Waltham, Mass.) measures the activity of a panel of four phosphoinositide 3-kinases: PI3Kα, PI3Kβ, PI3Kγ, and PI3Kδ. Each of these enzymes phosphorylates the 3′-hydroxyl group on phosphatidylinositiol (4,5)-bisphosphate (PIP2) to produce phosphatidylinositol (3,4,5)-trisphosphate (PIP3). This phosphorylation activity is measured using a GST-tagged PIP3 binding protein (Echelon Biosciences, Salt Lake City, Utah), an anti-GST-tagged Acceptor bead, and streptavidin-Donor bead. […] In the absence of this interaction, proximity of the Donor and Acceptor beads is decreased, producing a loss of luminescent signal which is inversely proportional to PI3K activity.
The enzyme reaction buffer is made using sterile water (Baxter, Deerfield, Ill.) and 50 mM Tris HCl pH 7, 14 mM MgCl2, 2 mM sodium cholate, and 100 mM NaCl. 2 mM DTT is added fresh the day of the experiment. The AlphaScreen® reaction buffer is made using sterile water and 10 mM Tris HCl pH 7.5, 150 mM NaCl, 0.10% Tween 20, and 30 mM EDTA. 1 mM DTT is added fresh the day of the experiment.
The source plates for this assay are 384-well Greiner clear polypropylene plates containing test compounds at 5mM and diluted 1:2 over 22 points. […] Source plates are replicated into 384-well Optiplates (PerkinElmer, Waltham, Mass.), 0.5 μL/well, to make assay-ready plates.
The different PI3K isoforms are each diluted in enzyme reaction buffer to 2× working solutions. […] Two different 2× substrate solutions are made in enzyme reaction buffer. In one solution, PI(4,5)P2 (Echelon Biosciences, Salt Lake City, Utah) is diluted to 10 μM and ATP is diluted to 20 μM. This solution is used in the assays testing PI3Kα and PI3Kβ. In a second solution, PI(4,5)P2 is diluted to 10 μM and ATP is diluted to 8 μM. This solution used in the assays testing PI3Kγ and PI3Kδ.
The AlphaScreen® reaction solutions are made using beads from the anti-GST AlphaScreen® kit (PerkinElmer, Waltham, Mass.). Two solutions are made in Alphascreen reaction buffer to 4× working concentrations. In one solution, biotinylated-IP4 (Echelon Biosciences, Salt Lake City, Utah) is diluted to 40 nM and streptavadin-Donor Beads are diluted to 80 μg/mL. In the second solution, PIP3-binding protein (Echelon Biosciences, Salt Lake City, Utah) is diluted to 40 nM and anti-GST-Acceptor Beads are diluted to 80 μg/mL. 10 μL/well of enzyme reaction buffer is added to Column 24 of the assay ready plates in place of enzyme. This is done for plates in the PI3Kα, β, and 67 assays.
Using a 384-well dispensing Multidrop (Titertek, Huntsville, Ala.), 10 μL/well of 2× enzyme (PI3Kα, β, δ) is added to Columns 1-23 of the appropriate assay ready plates (for PI3Kγ 10 μL is added to Columns 1-24). 10 μL/well of the appropriate substrate solution (the solution with 20 μM ATP for PI3Kα and β assays, and the solution with 8 μM ATP for PI3Kγ and δ assays) is then added to Columns 1-24 of the plates. Plates are then incubated at room temperature for 20 minutes.
In the dark, 10 μL/well of the Donor Bead solution is added to Columns 1-24 of the plates to quench the enzyme reaction. The plates are incubated at room temperature for 30 minutes. Still in the dark, 10 μL/well of the Acceptor Bead solution is also added to Columns 1-24 of the plates. The plates are then incubated in the dark for 1.5 hours. The plates are read on an Envision Multilabel Plate Reader (PerkinElmer, Waltham, Mass.) with a 680 nm excitation filter and a 520-620 nm emission filter.

[1] = system: phosphorylation of Akt at Serine 473; test: pAkt AlphaScreen (U87 cell); assay type: cell-based; details: Homo sapiens, U-87 MG; U87 MG cells, pAkt Ser473; average
Method: pAkt Alphascreen (U87 Cell)
The pAkt AlphaScreen® assay (PerkinElmer, Waltham, Mass.) determines whether there is phosphorylation of Akt at Serine 473 by recruitment of a phosphospecific antibody. This assay was performed using U87 MG cells. The U87 growth media consists of MEM (Gibco, Carlsbad, Calif.) supplemented with 10% FBS (Gibco,), 1× Non-Essential Amino Acids (Gibco,) and 1× Penicillin/Streptomycin/Glutamine (Gibco). The cells were maintained weekly using 0.05% Trypsin (Gibco) and replated in 150 mm TC-Treated Culture Dishes (Corning, Corning, N.Y.).
The first day of the assay, the adherent cells were trypsinized, media was added to the loose cells and cells were mixed to a homogenous mixture. 0.5 ml of the homogenous mixture was counted on the Beckman Coulter® Vi-CELL™ XR (Fullerton, Calif.). 50 frames of cells were counted and the number of viable cells was determined. The cells were then diluted to 0.25 million cells per ml, and centrifuged at 200 rcf for 5 minutes. The media was removed and the cells were reconstituted in fresh media for plating. The cells were plated at 20 μl per well on the PerkinElmer® FlexDrop PLUS in Low Volume 384 Well White Tissue Culture Plates (Corning) with a final cell density of 5K cells per well. The plates were incubated overnight at 37° Celsius, 5% CO2.
On the second day, the compound plates were prepared, the cells were treated with compound and the pAkt reaction mix was added to the cell lysate. 384 well compound plates were prepared containing 1 μl of compound per well starting at 5 mM and diluted 1:2 across the row, resulting in a 22 well serial dilution. 39 μl of growth media was added to the compound plate in rows 1-22 using the PerkinElmer® FlexDrop PLUS resulting in a DMSO concentration of 2.5%. The cell plates and diluted compound plates were put onto the VELOCITY11™ VPREP™ 384 ST where the compound plate was mixed and 5 μl of serially diluted compound or controls was added to the cell plate. The final concentration of the compounds was 25 μM serially diluted to 11.9 pM in 0.5% DMSO. The cell plates were then incubated with compound for two hours at 37° Celsius, 5% CO2. After two hours, the media in the cell plates was aspirated using the BioTek® ELx405HT plate washer (Winooski, Vt.) removing the majority of media and compound without disturbing the adherent U87 cells. The following assay reagents are components of the SureFire® Akt (Ser 473) Phosphorylation 50K Point Kit (TGR BioSciences, Adelaide, Austalia) and an IgG Detection Kit (PerkinElmer, Waltham, Mass.). 5 μl of 1× Lysis Buffer was added to each well using the PerkinElmer® FlexDrop PLUS. The plates were then incubated at room temperature on a shaker for ten minutes. The AlphaScreen® reaction was prepared under low light conditions (subdued or green light) including p-Akt (Ser 473) Reaction Buffer, Dilution Buffer, Activation Buffer, Acceptor Beads and Donor Beads at a ratio of 40:20:10:1:1 respectively. The AlphaScreen® reaction was added to the cell lysate at 6 μl per well using the PerkinElmer® FlexDrop PLUS. The plates were placed in a humid environment to reduce edge effects and incubated overnight at room temperature with restricted air flow in the dark.
On the final day of the experiment, the plates were read on the PerkinElmer® EnVision™ 2103 Multilable Reader using the standard AlphaScreen® readout. The POC is calculated and the data is analyzed to report the IC50 IP for pAkt at Serine 473.
Activity data for the compounds tested in the PI3K cell based Akt assay is provided in Table 2 under the column heading U87

mTOR = target: T2, mTOR (Homo sapiens, UniProt P42345); test: In vitro mTOR assay (Lanthascreen); assay type: biochemical; details: average if run more than once
T2 construct: purchased Invitrogen (Carlsbad, Calif.)
Excerpt: The Invitrogen (Carlsbad, Calif.) mammalian target of rapamycin (mTOR) Lanthascreen assay can be used to quantitate mTOR kinase activity in an in vitro setting. Active mTOR phosphorylates eukaryotic translation initiation factor 4E binding protein 1 (4E-BP1) on residue threonine 46. This phosphorylation event can be detected with a phospho-specific terbium (Tb) labeled Ab, in turn bringing the Tb label in close proximity to the GFP tagged 4E-BP1 and allowing for time-resolved fluorescence resonance energy transfer (TR-FRET), which correlates 4E-BP1 phosphorylation levels with mTOR kinase activity.
Enzyme reaction buffer can be prepared in deionized water containing 50 mM HEPES (pH 7.5), 0.01% Polysorbate 20, 1 mM EGTA, and 10 mM MnCl2.
Dilutions of the compound to be tested can be prepared in 96-well polypropylene plates (Fisher Scientific, Waltham, Mass.). One row represents a 10-point dose of compound diluted 1:3 in enzyme reaction buffer and 20% dimethyl sulfoxide (DMSO). The top concentration for all compounds is 36 μM. Wells 6 and 12 can serve as the no compound (DMSO only) and high compound controls.
An mTOR substrate solution can prepared in enzyme reaction buffer containing 1600 nM green fluorescent protein tagged eukaryotic translation initiation factor 4E binding protein 1 (GFP-4E-BP1) (Invitrogen, Carlsbad, Calif.) and 28 uM adenosine triphosphate (ATP) (Calbiochem, Gibbstown, N.J.).
mTOR enzyme (Invitrogen, Carlsbad, Calif.) can be diluted in enzyme reaction buffer to a working concentration of 100 ng/mL.
The enzyme assay can be run in 384 well low volume assay plates (Corning, Corning, N.Y.). 2.5 uL of substrate solution containing GFP-4E-BP1 and ATP can be added to appropriate wells in the assay plate followed by 2.5 μL of compound dilutions. 5 μL of appropriately diluted mTOR enzyme can be added and the reaction allowed to proceed for 1 hour at room temperature. Final reagent concentrations in the enzyme assay are 50 ng/mL mTOR, 400 nM GFP-4E-BP1, and 7 μM ATP.
The enzyme assay can be terminated upon the addition of 10 μL of 20 mM EDTA and 4 nM Tb-labeled anti-phospho-4E-BP1 [T46] antibody (Invitrogen, Carlsbad, Calif.). The assay plate can then be incubated at room temperature for 1 hour and results read on a Tecan Safire II plate reader (Tecan, Männedorf, Switzerland).

T2 sequence (P42345 1360-2549 limits assumed): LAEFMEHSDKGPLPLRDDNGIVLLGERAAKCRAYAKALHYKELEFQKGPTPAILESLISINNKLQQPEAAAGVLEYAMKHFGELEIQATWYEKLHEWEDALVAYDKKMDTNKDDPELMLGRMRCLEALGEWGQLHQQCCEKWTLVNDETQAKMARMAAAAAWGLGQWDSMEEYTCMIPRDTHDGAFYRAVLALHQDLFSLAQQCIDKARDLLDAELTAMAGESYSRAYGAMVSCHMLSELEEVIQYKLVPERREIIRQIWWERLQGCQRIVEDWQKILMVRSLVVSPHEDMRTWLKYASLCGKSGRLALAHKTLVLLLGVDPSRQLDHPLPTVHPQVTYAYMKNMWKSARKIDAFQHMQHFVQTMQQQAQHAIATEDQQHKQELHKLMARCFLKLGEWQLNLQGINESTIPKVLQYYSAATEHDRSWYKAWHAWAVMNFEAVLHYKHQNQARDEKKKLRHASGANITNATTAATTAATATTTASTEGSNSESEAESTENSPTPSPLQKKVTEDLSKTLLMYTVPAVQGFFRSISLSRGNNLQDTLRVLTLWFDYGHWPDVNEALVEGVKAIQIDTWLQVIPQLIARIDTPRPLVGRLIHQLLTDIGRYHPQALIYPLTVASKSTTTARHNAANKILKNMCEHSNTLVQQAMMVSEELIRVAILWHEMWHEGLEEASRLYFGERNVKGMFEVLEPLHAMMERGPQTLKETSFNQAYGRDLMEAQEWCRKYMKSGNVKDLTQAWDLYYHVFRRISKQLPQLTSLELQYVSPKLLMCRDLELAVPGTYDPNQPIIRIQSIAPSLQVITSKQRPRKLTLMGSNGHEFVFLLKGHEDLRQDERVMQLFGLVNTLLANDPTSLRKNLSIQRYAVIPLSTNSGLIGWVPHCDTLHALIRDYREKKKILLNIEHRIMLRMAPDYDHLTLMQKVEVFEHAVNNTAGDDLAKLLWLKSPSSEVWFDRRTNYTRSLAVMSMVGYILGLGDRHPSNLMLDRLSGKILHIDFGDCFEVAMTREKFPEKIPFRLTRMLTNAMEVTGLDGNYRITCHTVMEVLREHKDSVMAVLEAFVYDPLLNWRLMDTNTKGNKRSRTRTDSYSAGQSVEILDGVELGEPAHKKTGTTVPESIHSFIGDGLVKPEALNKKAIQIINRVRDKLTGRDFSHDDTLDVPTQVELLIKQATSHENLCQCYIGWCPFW
T1 sequence (P42336 whole entry): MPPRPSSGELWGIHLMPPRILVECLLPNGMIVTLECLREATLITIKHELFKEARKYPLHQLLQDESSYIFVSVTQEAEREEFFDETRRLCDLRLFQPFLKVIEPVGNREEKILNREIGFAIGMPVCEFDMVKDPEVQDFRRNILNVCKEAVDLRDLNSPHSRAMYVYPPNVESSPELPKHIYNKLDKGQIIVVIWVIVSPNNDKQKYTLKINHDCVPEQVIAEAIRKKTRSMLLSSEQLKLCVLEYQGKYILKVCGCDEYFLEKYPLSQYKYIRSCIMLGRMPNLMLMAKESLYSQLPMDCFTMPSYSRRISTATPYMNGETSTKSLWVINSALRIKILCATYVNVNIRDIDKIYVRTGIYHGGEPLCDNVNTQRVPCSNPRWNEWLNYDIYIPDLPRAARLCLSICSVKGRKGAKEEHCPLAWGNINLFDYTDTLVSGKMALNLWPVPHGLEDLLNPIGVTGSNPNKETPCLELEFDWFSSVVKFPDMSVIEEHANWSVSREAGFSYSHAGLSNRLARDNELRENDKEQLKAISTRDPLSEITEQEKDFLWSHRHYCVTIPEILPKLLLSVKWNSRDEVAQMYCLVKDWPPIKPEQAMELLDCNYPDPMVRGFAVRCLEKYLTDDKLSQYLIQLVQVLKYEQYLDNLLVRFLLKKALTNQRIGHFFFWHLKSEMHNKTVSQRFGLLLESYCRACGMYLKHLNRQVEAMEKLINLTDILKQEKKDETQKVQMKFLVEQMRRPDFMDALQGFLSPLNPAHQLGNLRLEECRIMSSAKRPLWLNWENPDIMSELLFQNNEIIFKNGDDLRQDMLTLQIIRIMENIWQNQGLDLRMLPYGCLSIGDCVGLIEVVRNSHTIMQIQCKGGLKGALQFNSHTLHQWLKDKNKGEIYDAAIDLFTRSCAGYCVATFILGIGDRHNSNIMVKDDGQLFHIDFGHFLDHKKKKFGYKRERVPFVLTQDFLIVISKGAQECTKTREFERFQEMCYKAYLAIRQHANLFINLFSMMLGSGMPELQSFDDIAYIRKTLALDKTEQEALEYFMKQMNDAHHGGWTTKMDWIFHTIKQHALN
T1 sequence (P27986 whole entry partner): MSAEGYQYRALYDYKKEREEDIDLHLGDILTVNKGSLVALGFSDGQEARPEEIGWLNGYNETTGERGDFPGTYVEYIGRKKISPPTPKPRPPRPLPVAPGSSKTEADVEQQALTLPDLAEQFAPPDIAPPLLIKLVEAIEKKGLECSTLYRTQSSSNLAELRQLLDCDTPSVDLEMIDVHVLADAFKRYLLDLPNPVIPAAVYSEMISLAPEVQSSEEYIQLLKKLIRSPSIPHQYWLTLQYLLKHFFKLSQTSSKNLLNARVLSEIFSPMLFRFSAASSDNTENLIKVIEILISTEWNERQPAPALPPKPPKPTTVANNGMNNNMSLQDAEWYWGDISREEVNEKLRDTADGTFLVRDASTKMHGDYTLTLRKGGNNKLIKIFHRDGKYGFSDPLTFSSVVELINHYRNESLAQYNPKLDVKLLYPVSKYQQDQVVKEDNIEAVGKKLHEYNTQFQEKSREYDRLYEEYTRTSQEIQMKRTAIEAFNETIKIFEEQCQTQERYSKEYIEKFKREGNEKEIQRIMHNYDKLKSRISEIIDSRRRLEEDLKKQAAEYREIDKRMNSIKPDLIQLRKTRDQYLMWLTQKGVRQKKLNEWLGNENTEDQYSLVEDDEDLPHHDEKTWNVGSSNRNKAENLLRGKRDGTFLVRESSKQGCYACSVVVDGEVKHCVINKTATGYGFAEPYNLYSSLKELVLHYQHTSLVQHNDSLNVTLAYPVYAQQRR

CS(=O)(=O)Nc1cc(-c2ccc3nccc(-c4ccc(C(F)(F)F)nc4)c3c2)cnc1Cl [Example 112, N-(2-chloro-5-(4-(6-(trifluoromethyl)-3-pyridinyl)-6-quinolinyl)-3-pyridinyl)methanesulfonamide]
Ki (PI3Kα): 0.0021 µM | IC50 [1]: 0.0091 µM | IC50 (mTOR): 0.0021 µM

C[C@@H]1CN(c2ccnc3ccc(-c4cnc(Cl)c(NS(C)(=O)=O)c4)cc23)C[C@@H](C)O1 [Example 110, N-(2-chloro-5-(4-((2R,6R)-2,6-dimethyl-4-morpholinyl)-6-quinolinyl)-3-pyridinyl)methanesulfonamide]
Ki (PI3Kα): 0.0063 µM | IC50 [1]: 0.0141 µM | IC50 (mTOR): 0.0051 µM

Cc1ccccc1OC1CCN(c2ccnc3ccc(-c4cnc(Cl)c(NS(C)(=O)=O)c4)cc23)C1 (stereo not drawn) [Example 80, N-(2-chloro-5-(4-(3-(2-methylphenoxy)-1-pyrrolidinyl)-6-quinolinyl)-3-pyridinyl)methanesulfonamide]
Ki (PI3Kα): 0.0294 µM | IC50 [1]: 0.704 µM | IC50 (mTOR): 0.389 µM

CS(=O)(=O)Nc1cc(-c2ccc3nccc(N4CCC(c5ccccc5)CC4)c3c2)cnc1Cl [Example 82, N-(2-chloro-5-(4-(4-phenyl-1-piperidinyl)-6-quinolinyl)-3-pyridinyl)methanesulfonamide]
Ki (PI3Kα): 0.0052 µM | IC50 [1]: 0.364 µM | IC50 (mTOR): 0.0167 µM

O=S(=O)(Nc1cc(-c2ccc3nccc(N4CCOCC4)c3c2)cnc1Cl)c1cccnc1 [Example 101, N-(2-chloro-5-(4-(4-morpholinyl)-6-quinolinyl)-3-pyridinyl)-3-pyridinesulfonamide]
Ki (PI3Kα): 0.0027 µM | IC50 [1]: 0.0762 µM | IC50 (mTOR): 0.0036 µM

COCCN(C)c1ccnc2ccc(-c3cnc(Cl)c(NS(=O)(=O)N(C)CCOC)c3)cc12 [Example 126, N′-(2-chloro-5-(4-((2-methoxyethyl)(methyl)amino)-6-quinolinyl)-3-pyridinyl)-N-(2-methoxyethyl)-N-methylsulfamide]
Ki (PI3Kα): 0.0801 µM | IC50 [1]: 0.669 µM | IC50 (mTOR): 0.134 µM

COc1cc(-c2ccnc3ccc(-c4cnc(Cl)c(NS(C)(=O)=O)c4)cc23)ccn1 [Example 106, N-(2-chloro-5-(4-(2-methoxy-4-pyridinyl)-6-quinolinyl)-3-pyridinyl)methanesulfonamide]
Ki (PI3Kα): 0.0019 µM | IC50 [1]: 0.0259 µM | IC50 (mTOR): 0.0034 µM

CN(C)S(=O)(=O)Nc1cc(-c2ccc3nccc(Cl)c3c2)cnc1Cl [Example 125, N′-(2-chloro-5-(4-chloro-6-quinolinyl)-3-pyridinyl)-N,N-dimethylsulfamide]
Ki (PI3Kα): 0.0033 µM | IC50 [1]: 0.723 µM | IC50 (mTOR): 0.0077 µM

O=S(=O)(Nc1cc(-c2ccc3nccc(OC4CCSC4)c3c2)cnc1Cl)c1ccc(F)cc1 (stereo not drawn) [Example 108, N-(2-chloro-5-(4-(tetrahydro-3-thiophenyloxy)-6-quinolinyl)-3-pyridinyl)-4-fluorobenzenesulfonamide]
Ki (PI3Kα): 0.0023 µM | IC50 [1]: 0.306 µM | IC50 (mTOR): 0.0079 µM

CN(C)S(=O)(=O)Nc1cc(-c2ccc3nccc(N4CCOCC4)c3c2)cnc1Cl [Example 122, N′-(2-Chloro-5-(4-(4-morpholinyl)-6-quinolinyl)-3-pyridinyl)-N,N-dimethylsulfamide]
Ki (PI3Kα): 0.0065 µM | IC50 [1]: 0.0163 µM | IC50 (mTOR): 0.0182 µM

CS(=O)(=O)Nc1cc(-c2ccc3nccc(C4=CCOCC4)c3c2)cnc1Cl [Example 107, N-(2-chloro-5-(4-(3,6-dihydro-2H-pyran-4-yl)-6-quinolinyl)-3-pyridinyl)methanesulfonamide]
Ki (PI3Kα): 0.0017 µM | IC50 [1]: 0.0198 µM | IC50 (mTOR): 0.004 µM

C[C@@H]1CN(c2ccnc3ccc(-c4cnc(Cl)c(NS(C)(=O)=O)c4)cc23)C[C@H](C)O1 [Example 103, N-(2-chloro-5-(4-((2R,6S)-2,6-dimethyl-4-morpholinyl)-6-quinolinyl)-3-pyridinyl)methanesulfonamide]
Ki (PI3Kα): 0.0032 µM | IC50 [1]: 0.0556 µM | IC50 (mTOR): 0.0102 µM
